“Also recorded” adds a separate entry of the source.
Columns and labels:
[1] = target: N-form albumin (TRP 213 atRA binding site) (Homo sapiens, UniProt P02768); details: literature estimate (Maiti et al. 2006), TRP 213 site on N-form albumin; cited from earlier work
N-form albumin = N-form albumin (Bos taurus, UniProt P02769); test: atRA binding by tryptophan fluorescence quenching at 340 nm, BSA at pH 7.4; parameters: species or system bovine
Description: (§1) All trans retinoic acid (atRA, 82625, Sigma, St. Louis, 206 MO) was added to solutions of BSA with molar ratio concentrations including 0:1, 0.08:1, 0.1:1, 0.13:1, 0.2:1, 0.4:1, 0.8:1, 1.2:1, 1.6:1, and 2:1 (atRA:BSA). A baseline fluorescence intensity of BSA at pH 7.4 and 3.5 measured at 340 nm with excitation at 295 nm was recorded (n=4 for each molar ratio concentration) as reported in the literature (Maiti et al. Int J Biol Macromol. 2006; 38(3-5):197-202; herein incorporated by reference in its entirety) using the plate reader Tecan Safire II (Tecan, Maennedorf, Switzerland). Then, atRA binding to BSA at pH 7.4 and 3.5 was assessed immediately after the addition of atRA at the different molar ratios. For measuring atRA release from hydrogel disks, a higher molar ratio concentration of 8:1 (atRA:BSA) was used when incorporating atRA into BSA precursor solutions before gelation. Precursor solutions were processed as normal to fabricate atRA-loaded PBSA and TBSA hydrogel disks with a final volume of 0.5 mL. Disks were submerged in 10 mL PBS at 37° C. for atRA release studies. Eluates were collected and replaced at 1, 3, 6, 12, 24, 48, 72, 144, and 240 hour sampling times and fluorescence intensity of atRA at 340 nm and BSA at 280 nm was collected with a NanoDrop™ 2000 C Spectrophotometer (ThermoScientific™, Waltham, Mass.).

F-form albumin = F-form albumin (Bos taurus, UniProt P02769); test: atRA binding by tryptophan fluorescence quenching at 340 nm, BSA at pH 3.5; parameters: species or system bovine; details: pH 3.5, excitation 295 nm
Chain of F-form albumin (P02769 25-607): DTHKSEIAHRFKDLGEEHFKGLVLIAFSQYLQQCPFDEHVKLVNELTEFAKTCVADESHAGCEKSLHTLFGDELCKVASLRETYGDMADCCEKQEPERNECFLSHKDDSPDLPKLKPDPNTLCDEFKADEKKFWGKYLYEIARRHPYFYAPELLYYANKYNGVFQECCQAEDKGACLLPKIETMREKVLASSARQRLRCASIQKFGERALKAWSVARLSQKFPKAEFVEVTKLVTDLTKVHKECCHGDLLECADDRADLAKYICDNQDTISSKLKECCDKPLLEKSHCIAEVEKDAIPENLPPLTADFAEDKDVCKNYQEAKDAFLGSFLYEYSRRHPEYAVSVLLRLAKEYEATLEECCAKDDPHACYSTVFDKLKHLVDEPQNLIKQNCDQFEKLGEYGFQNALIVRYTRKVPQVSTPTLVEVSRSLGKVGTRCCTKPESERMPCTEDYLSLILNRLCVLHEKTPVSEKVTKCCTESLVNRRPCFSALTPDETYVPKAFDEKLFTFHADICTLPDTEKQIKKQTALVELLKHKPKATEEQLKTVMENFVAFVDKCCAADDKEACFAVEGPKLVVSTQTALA
Description: as §1

[2] = system: Human aortic smooth muscle cells (HASMC); test: Scratch test migration assay; assay type: cell-based; details: cells exposed directly to 25 ng/mL atRA in media, 24 hr scratch wound, serum starved, vs negative control
Description: Human aortic smooth muscle cells (HASMC) (Lonza, Basel, Switzerland) (passage 5) were cultured in SmGM-2 media. All cells were cultured at 37° C. in a humidified incubator containing 5% CO2. HASMCs (seeding density 1×10^4 cells/cm2) were seeded onto TCP surfaces and grown until 90% confluent. Cell culture media was changed every 2 days until confluence after which serum-free SmGM-2 media was used to create a nutrient starved environment for 24 hrs. A vertical scratch was made with a sterile 200 uL pipette tip in the confluent HASMC layer, rinsed with warm PBS, and replaced with 1 mL SmGM-2 media. The underside of the dish was marked near the wound area to aid in identification. Wells were randomly placed into 4 groups which received either a 100 uL dose of eluted material from atRA loaded PBSA or TBSA release study at day 10, a 100 uL dose of 24 ng atRA dissolved in PBS, or a control 100 uL of PBS. A light microscope (Nikon Eclipse TE2000-U) was used to capture images using Image Pro 5.0 software (MediaCybernetics, Bethesda, Md.) of the wound area immediately at day 0 and at various times until the control wound closed at 24 hrs. Wound areas were determined using an automated wound area measurement macro with the ImageJ 1.43r software (NIH, Bethesda, Md.). The measurement of migration was determined by subtracting the cell-free area at day 0 from the cell-free area at 24 hrs. […]

[3] = In vivo subcutaneous rat model (biocompatibility); parameters: species or system Sprague-Dawley rats; details: 0.5 mL subcutaneous injection
Description: Eight female Sprague-Dawley rats (Harlan Laboratories, Inc.) weighing 150-175 g were used for in vivo biocompatibility testing of the BSA gels. Four rats were randomly assigned into two groups for explant time points at 4 days and 4 weeks for evaluation of the acute and chronic inflammatory response. Animals were anesthetized using the inhalant machine Impact 6 (Vetequip Inc., Pleasanton, Calif.). Isofluorane was administered at a concentration of 2% with an oxygen flow rate of 2 L/min. Following anesthesia; the backs of the animals were shaved and then disinfected with […] followed by alcohol and a second […] wipe. Two incisions of approximately 1.5 cm in length were made at the implantation sites and subcutaneous pockets were created by blunt dissection in each location. 20 wt % Albumin hydrogels 184 (both PBSA and TBSA) were fabricated as described in the methods section 2.1 and were cut into disks (h=0.5 cm, r=0.6 cm) using a sterile biopsy punch. In one location, an acid leached 20 wt % PBSA gel disk was implanted into the subcutaneous pocket far from the incision site. At the other incision site, a 20 wt % TBSA gel disk was implanted. A control saline injection and pH 7.4 (20 wt %) BSA solution was injected into the back of the rat in the two remaining implantation sites. […]

Chain of N-form albumin (P02769 25-607): as above
Chain of N-form albumin (TRP 213 atRA binding site) (P02768 25-609): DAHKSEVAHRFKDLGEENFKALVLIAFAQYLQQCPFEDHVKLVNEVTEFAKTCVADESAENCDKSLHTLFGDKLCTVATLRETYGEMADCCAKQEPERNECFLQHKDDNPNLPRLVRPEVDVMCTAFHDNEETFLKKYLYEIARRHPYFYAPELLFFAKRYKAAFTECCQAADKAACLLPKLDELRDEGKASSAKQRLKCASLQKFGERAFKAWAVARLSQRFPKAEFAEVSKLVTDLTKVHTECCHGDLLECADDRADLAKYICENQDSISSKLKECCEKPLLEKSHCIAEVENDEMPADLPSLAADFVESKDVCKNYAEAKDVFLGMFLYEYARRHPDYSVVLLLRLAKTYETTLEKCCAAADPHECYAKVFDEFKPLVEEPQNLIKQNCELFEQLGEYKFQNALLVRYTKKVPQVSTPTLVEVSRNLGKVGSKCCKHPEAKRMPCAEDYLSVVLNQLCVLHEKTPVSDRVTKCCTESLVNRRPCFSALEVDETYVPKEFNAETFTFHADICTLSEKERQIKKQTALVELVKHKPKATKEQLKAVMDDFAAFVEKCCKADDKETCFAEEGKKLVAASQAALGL

Compound | binding energy [1] | fluorescence quenching as a fraction of the initial fluorescence signal (N-form albumin; N-form albumin compared with F-form albumin) | tryptophan fluorescence signal at 340 nm upon addition of atRA (N-form albumin; N-form albumin, pH 7.4, excitation 295 nm) | tryptophan fluorescence signal at 340 nm upon addition of atRA (F-form albumin) | HASMC migration [2] | inflammatory response ([3]; 4 weeks) | inflammatory response (number of cells in the subcutaneous pocket) ([3]; 4 days, compared to saline control)
CC1=C(/C=C/C(C)=C/C=C/C(C)=C/C(=O)O)C(C)(C)CCC1 [atRA, All trans retinoic acid] | -7.58 kcal/mol | greater fluorescence quenching than F-form albumin | rapidly quenched | rapidly quenched | inhibited; also recorded: significant (p<0.05) reduction in cell migration |  | 
BSA solution: control 20 wt % bovine serum albumin solution at pH 7.4, injected subcutaneously |  |  |  |  |  | decreased significantly | increased general inflammatory response

From patent publication US20160045606A1, “PARTIALLY-DENATURED PROTEIN HYDROGELS” (Northwestern University, priority 2014, published 2016)
